Measured values as given in the supplement of paper PMC4862054.

Legend:
Assay in all cases: normalised response (% of control), CellTiter-Glo; higher = more viable cells (100 = DMSO, 0 = benzethonium chloride kill control)
Settings in all cases: incubation time: 72 h
[1] = tested on: CAL-51
Procedure, shortened: (§1)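 Compound was dispensed into 384-well plates at 5 concentrations in 10-fold steps spanning a 10,000-fold range specific to that compound. Breast cancer cell lines were added as 20 µl suspension and left for 72 h before CellTox Green fluorescence (485/520 nm) and then CellTiter-Glo luminescence, read after 10 min at room temperature. Each reported value is the normalised signal at one concentration, with 0.1 % DMSO set at 100 and a positive kill control at 0 on each plate.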

[2] = tested on: CAL-85-1
Procedure, shortened: as §1

[3] = tested on: BT-549
Procedure, shortened: as §1

[4] = tested on: MDA-MB-231
Procedure, shortened: as §1

[5] = tested on: Hs578T
Procedure, shortened: as §1

[6] = tested on: MCF-10A
Procedure, shortened: as §1

[7] = tested on: SK-BR-3
Procedure, shortened: as §1

[8] = tested on: MDA-MB-453
Procedure, shortened: as §1

[9] = tested on: MDA-MB-468
Procedure, shortened: as §1

[10] = tested on: CAL-120
Procedure, shortened: as §1

[11] = tested on: HCC1937
Procedure, shortened: as §1

[12] = tested on: HCC1143
Procedure, shortened: as §1

[13] = tested on: DU-4475
Procedure, shortened: as §1

[14] = tested on: BT-474
Procedure, shortened: as §1

## CCCC(CCC)C(=O)O [Valproic acid] (10000 nM)
[1]
  normalised response: 95.9%
[2]
  normalised response: 100%
[3]
  normalised response: 107%
[4]
  normalised response: 103%
[5]
  normalised response: 99.3%
[6]
  normalised response: 106%
[7]
  normalised response: 96.1%
[8]
  normalised response: 93.7%
[9]
  normalised response: 95.3%
[10]
  normalised response: 111%
[11]
  normalised response: 95.9%
[12]
  normalised response: 108%
[13]
  normalised response: 98.2%
[14]
  normalised response: 102%
